# Test results taken from patent publication US11040053B2, “Compositions and methods for activating “stimulator of interferon gene”13 dependent signalling” (CHINOOK THERAPEUTICS, INC., priority 2015, dated 2021).
# Experiments:
# hSTING(WT) = hSTING(WT) (Homo sapiens, UniProt Q86WV6, H232R); assay: Differential scanning fluorometry (DSF) binding to purified hSTING WT; design: DNA encoding amino acids 140-379 (amino acid numbering corresponding to Swiss Prot Q86WV6); 6xHIS (N, cleaved yes); SUMO (N, cleaved yes); made in house; host or cells: Rosetta2 (DE3) E. coli; conditions: for hSTING Tm Shift WT: DSF, 1 mg/ml STING AA140-379, ligand 1 mM
# hSTING(WT), sequence (Q86WV6 140-379 H232R): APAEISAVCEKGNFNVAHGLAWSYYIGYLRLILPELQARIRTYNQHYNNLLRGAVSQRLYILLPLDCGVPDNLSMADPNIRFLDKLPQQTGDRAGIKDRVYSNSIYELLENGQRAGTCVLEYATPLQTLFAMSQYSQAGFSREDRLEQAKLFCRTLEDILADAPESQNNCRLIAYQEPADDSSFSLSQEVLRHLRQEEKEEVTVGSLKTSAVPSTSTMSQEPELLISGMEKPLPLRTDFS
# Description: (§1) Cells were grown in lysogeny broth at 37° C. until a […] absorbance of 0.6 was reached. […] Cell pellets were re-suspended on ice in a buffer containing 50 mM Tris hydrochloride (Tris-HCl) pH 7.5, 500 mM sodium chloride (NaCl), 20 mM imidazole, 10% glycerol, 1 mM tris(2-carboxyethyl)phosphine hydrochloride (TCEP) and protease inhibitor tablet (Pierce) (Buffer A). Cells were lysed using an S-450D sonifier (Emmerson industrial) on ice. […] Protein was aliquoted, flash frozen in liquid nitrogen and stored at −80° C. until use.
# (§2) The protein is heated in the presence of a dye that binds to and fluoresces in hydrophobic environments. The protein is thermally denatured by heating resulting in increased dye binding to the unfolded protein and fluorescence. The temperature midpoint (Tm) of a proteins denaturation is established by calculating the half maximal value of the denaturation curve. The temperature midpoint of the protein in the presence of a ligand is directly related to the affinity of the ligand for the protein and therefore its ability to stabilize the protein at higher temperatures.
# (§3) Samples were placed in hard shell PCR plate (Bio-Rad). The fluorescence as a function of temperature was recorded in a CFX 96 real time PCR machine (Bio-Rad) reading on the HEX channel, excitation 450-490, emission 560-580 nm. The temperature gradient was from 15-80° C. ramping 0.5° C. per 15 seconds and recording every 0.5° C. After subtraction of the background signal from a sample lacking protein and ligand. The midpoint temperature (Tm) was calculated by fitting the curves of the fluorescence as a function of temperature to a Boltzmann sigmoidal function (Graph Pad Prism).
# hSTING(REF) = hSTING(REF) (Homo sapiens, UniProt Q86WV6); assay: Differential scanning fluorometry (DSF) binding to purified hSTING REF allele; design: DNA encoding amino acids 140-379 (amino acid numbering corresponding to Swiss Prot Q86WV6); 6xHIS (N, cleaved yes); SUMO (N, cleaved yes); made in house; host or cells: Rosetta2 (DE3) E. coli; conditions: for hSTING Tm Shift REF: DSF, 1 mg/ml STING AA140-379, ligand 1 mM; for binding relative to OH reference compound, in words: Table 4 comment, REF allele hSTING
# hSTING(REF), sequence (Q86WV6 140-379): as the sequence (Q86WV6 140-379 H232R) above, with R93H counted along it
# Description: as §1, §2, §3
# HAQ allele hSTING = molecular target: T1, HAQ allele hSTING (Homo sapiens, UniProt Q86WV6, G230A/H232R/R293Q); assay: Differential scanning fluorometry (DSF) binding to purified hSTING HAQ allele; conditions: for hSTING Tm Shift HAQ: DSF, 1 mg/ml STING AA140-379, ligand 1 mM
# T1 construct: DNA encoding amino acids 140-379 (amino acid numbering corresponding to Swiss Prot Q86WV6); 6xHIS (N, cleaved yes); SUMO (N, cleaved yes); made in house; host or cells: Rosetta2 (DE3) E. coli
# T1 sequence (Q86WV6 140-379 G230A/H232R/R293Q limits assumed): as the sequence (Q86WV6 140-379 H232R) above, with G91A, R154Q counted along it
# Description: as §1, §2, §3
# hSTING HAQ allele = molecular target: T2, hSTING HAQ allele (Homo sapiens, UniProt Q86WV6, G230A/H232R/R293Q/R71H); assay: IRF-3 inducible secreted luciferase reporter in THP1-Dual cells without digitonin; format: cell-based; conditions: for EC50: without digitonin in THP1 cells (HAQ allele)
# T2 construct: a human monocyte cell line containing the hSTING HAQ allele; host or cells: THP1-Dual cells
# T2 sequence (Q86WV6 whole entry R71H/G230A/H232R/R293Q): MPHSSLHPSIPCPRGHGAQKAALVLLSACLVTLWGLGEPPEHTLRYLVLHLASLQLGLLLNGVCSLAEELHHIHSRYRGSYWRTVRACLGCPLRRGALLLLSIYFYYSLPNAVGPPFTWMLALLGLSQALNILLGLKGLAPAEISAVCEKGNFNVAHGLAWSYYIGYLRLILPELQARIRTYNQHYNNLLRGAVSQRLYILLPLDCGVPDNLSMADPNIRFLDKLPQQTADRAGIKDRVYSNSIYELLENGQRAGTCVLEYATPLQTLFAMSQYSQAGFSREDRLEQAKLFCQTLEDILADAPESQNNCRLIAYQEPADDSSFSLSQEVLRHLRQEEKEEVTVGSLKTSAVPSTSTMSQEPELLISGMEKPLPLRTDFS
# Description: After 30 minutes, cells were washed and fresh RPMI media containing 10% FBS was added, and cells were incubated at 37° C. with 5% CO2 Cell culture supernatants from each sample were collected after overnight incubation, and 10 μL of the cell culture supernatants was added to 50 μL QUANTI-Luc reagent (Invivogen). Type I interferon activation was determined by measuring secreted luciferase levels on a SpectraMax M3 spectrophotometer (Molecular Devices). The EC50 value was determined from the dose-response curve for the 10 concentrations from the serial dilution of the reference compounds and compounds of the invention tested in this assay as listed in Table 5.
SMILES,hSTING Tm Shift WT (hSTING(WT)),hSTING Tm Shift REF (hSTING(REF)),hSTING Tm Shift HAQ (HAQ allele hSTING),EC50 (hSTING HAQ allele),"binding relative to OH reference compound, in words (hSTING(WT); Table 4 comment, wild type hSTING)","binding relative to OH reference compound, in words (hSTING(REF))","binding relative to OH reference compound, in words (HAQ allele hSTING; Table 4 comment, HAQ allele hSTING)","activity relative to OH reference compound, in words (hSTING HAQ allele; Table 5 comment, THP1 cells without digitonin)"
"Nc1nc2c(ncn2[C@@H]2O[C@@H]3COP(=O)(O)O[C@H]4[C@@H](O)[C@H](n5cnc6c(=O)[nH]c(N)nc65)O[C@@H]4COP(=O)(O)O[C@H]3[C@H]2O)c(=O)[nH]1 [3'3'-(G)(G), cyclic-[G(3′,5′)p-G(3′,5′)p], reference compound]",6.1 °C,6.1 °C,9.97 °C,,,,,
"Nc1nc2c(ncn2[C@@H]2O[C@@H]3CO[P@@](=O)(S)O[C@H]4[C@@H](O)[C@H](n5cnc6c(N)ncnc65)O[C@@H]4CO[P@@](=O)(S)O[C@H]3[C@H]2O)c(=O)[nH]1 [3'3'-RR-(G)(A), reference compound]",11.1 °C,7.2 °C,21.0 °C,28 µM,,,,
"Nc1nc2c(ncn2[C@@H]2O[C@@H]3CO[P@@](=O)(S)O[C@H]4[C@@H](O)[C@H](n5cnc6c(=O)[nH]c(N)nc65)O[C@@H]4CO[P@@](=O)(S)O[C@H]3[C@H]2O)c(=O)[nH]1 [3'3'-RR-(G)(G), dithio-(Rp,Rp)-cyclic-[G(3′,5′)p-G(3′,5′)p], reference compound]",9.5 °C,10.3 °C,15.3 °C,75 µM,,,,
"Nc1ncnc2c1ncn2[C@@H]1O[C@@H]2CO[P@@](=O)(S)O[C@H]3[C@H](F)[C@H](n4cnc5c(N)ncnc54)O[C@@H]3CO[P@@](=O)(S)O[C@H]2[C@@H]1F [Compound 7, (2R,3S,3aR,5R,7aR,9R,10S,10aR,12R,14aR)-2,9-bis(6-amino-9H-purin-9-yl)-3,10-difluoro-5,12-dimercaptooctahydro-2H,7H-difuro[3,2-d:3′,2′-j][1,3,7,9]tetraoxa[2,8]diphosphacyclododecine 5,12-dioxide]",3.1 °C,0.3 °C,11.2 °C,284 µM,,,,
"Nc1ncnc2c1ncn2[C@@H]1O[C@@H]2CO[P@@](=O)(S)O[C@H]3[C@H](F)[C@H](n4cnc5c(N)ncnc54)O[C@@H]3CO[P@](=O)(S)O[C@H]2[C@@H]1F [Compound 7a, (2R,3 S,3aR,5R,7aR,9R,10S,10aR,12S,14aR)-2,9-bis(6-amino-9H-purin-9-yl)-3,10-difluoro-5,12-dimercaptooctahydro-2H,7H-difuro [3,2-d:3′,2′-j][1,3,7,9]tetraoxa[2,8]diphosphacyclododecine 5,12-dioxide]",0.1 °C,0 °C,3.1 °C,> 150 µM,,,,
"Nc1nc2c(ncn2[C@@H]2O[C@@H]3CO[P@@](=O)(S)O[C@H]4[C@@H](F)[C@H](n5cnc6c(=O)[nH]c(N)nc65)O[C@@H]4CO[P@@](=O)(S)O[C@H]3[C@H]2F)c(=O)[nH]1 [Compound 17, 9,9′-((2R,3R,3aR,5R,7aR,9R,10R,10aR,12R,14aR)-3,10-difluoro-5,12-dimercapto-5,12-dioxidooctahydro-2H,7H-difuro [3,2-d:3′,2′-j][1,3,7,9]tetraoxa[2,8]diphosphacyclododecine-2,9-diyl)bis(2-amino-1,9-dihydro-6H-purin-6-one)]",12.6 °C,11.4 °C,22.6 °C,8 µM,improved binding,improved binding,improved binding,improved activity
"Nc1nc2c(ncn2[C@@H]2O[C@@H]3CO[P@@](=O)(S)O[C@H]4[C@@H](F)[C@H](n5cnc6c(=O)[nH]c(N)nc65)O[C@@H]4CO[P@](=O)(S)O[C@H]3[C@H]2F)c(=O)[nH]1 [Compound 17a, 9,9′-((2R,3R,3aR,5R,7aR,9R,10R,10aR,12S,14aR)-3,10-difluoro-5,12-dimercapto-5,12-dioxidooctahydro-2H,7H-difuro [3,2-d:3′,2′-j][1,3,7,9]tetraoxa[2,8]diphosphacyclododecine-2,9-diyl)bis(2-amino-1,9-dihydro-6H-purin-6-one)]",,,,> 150 µM,,,,
"Nc1ncnc2c1ncn2[C@@H]1O[C@@H]2CO[P@](=O)(S)O[C@H]3[C@@H](F)[C@H](n4cnc5c(N)ncnc54)O[C@@H]3CO[P@@](=O)(S)O[C@H]2[C@H]1O [Compound 22a, (2R,3R,3aR,5S,7aR,9R,10R,10aS,12R,14aR)-2,9-bis(6-amino-9H-purin-9-yl)-3-fluoro-10-hydroxy-5,12-dimercaptooctahydro-2H,7H-difuro[3,2-d:3′,2′-j][1,3,7,9]tetraoxa[2,8]diphosphacyclododecine 5,12-dioxide]",6.4 °C,4.3 °C,11.4 °C,99 µM,,,,
"Nc1nc2c(ncn2[C@@H]2O[C@@H]3CO[P@@](=O)(S)O[C@H]4[C@@H](O)[C@H](n5cnc6c(N)ncnc65)O[C@@H]4CO[P@](=O)(S)O[C@H]3[C@H]2F)c(=O)[nH]1 [Compound 23a, 2-amino-9-((2R,3R,3aR,5S,7aR,9R,10R,10aS,12R,14aR)-9-(6-amino-9H-purin-9-yl)-3-fluoro-10-hydroxy-5,12-dimercapto-5,12-dioxidooctahydro-2H,7H-difuro[3,2-d:3′,2′-j][1,3,7,9]tetraoxa[2,8]diphosphacyclododecin-2-yl)-1,9-dihydro-6H-purin-6-one]",10.6 °C,7.8 °C,16.5 °C,25 µM,,,,
"CC(C)C(=O)Nc1nc2c(ncn2[C@@H]2O[C@@H]3CO[P@@](=O)(S)O[C@H]4[C@@H](F)[C@H](n5cnc6c(NC(=O)c7ccccc7)ncnc65)O[C@@H]4CO[P@@](=O)(S)O[C@H]3[C@H]2F)c(=O)[nH]1 [Compound 25, N-(9-((2R,3R,3aR,5R,7aR,9R,10R,10aR,12R,14aR)-3,10-difluoro-9-(2-isobutyramido-6-oxo-1,6-dihydro-9H-purin-9-yl)-5,12-dimercapto-5,12-dioxidooctahydro-2H,7H-difuro[3,2-d:3′,2′-j][1,3,7,9]tetraoxa[2,8]diphosphacyclododecin-2-yl)-9H-purin-6-yl)benzamide]",10.6 °C,8.6 °C,14.7 °C,78 µM,,improved binding,,
"CC(C)C(=O)Nc1nc2c(ncn2[C@@H]2O[C@@H]3CO[P@](=O)(S)O[C@H]4[C@@H](F)[C@H](n5cnc6c(NC(=O)c7ccccc7)ncnc65)O[C@@H]4CO[P@@](=O)(S)O[C@H]3[C@H]2F)c(=O)[nH]1 [Compound 25a, N-(9-((2R,3R,3aR,5S,7aR,9R,10R,10aR,12R,14aR)-3,10-difluoro-9-(2-isobutyramido-6-oxo-1,6-dihydro-9H-purin-9-yl)-5,12-dimercapto-5,12-dioxidooctahydro-2H,7H-difuro[3,2-d:3′,2′-j][1,3,7,9]tetraoxa[2,8]diphosphacyclododecin-2-yl)-9H-purin-6-yl)benzamide]",6.8 °C,5.4 °C,8.9 °C,> 150 µM,,,,
